US20240058240A1, “COMPOUNDS AS SELF-TANNING SUBSTANCES AND TANNING COMPOSITIONS THEREOF” (CHEMCOM S.A., priority 2020, published 2024)

Columns and labels:
[1] = test system: Normal Human Epidermal Melanocytes moderately pigmented (NHEMs-MP); assay: Melanin content (pigmentation) of NHEMs-MP in culture; assay type: cell-based; details: 3.16 μM, 4 days, NHEMs-MP, in comparison with DOPA (50 μM)
Procedure: This primary culture was cultivated in medium M254 supplemented (LIFE TECHNOLOGIES; ref:M-254-500) with HMGS (human melanocyte growth supplement; LIFE TECHNOLOGIES; ref: S-002-5) and gentamycin (LIFE TECHNOLOGIES; ref:15710-049) and maintained in a humidified incubator at 37° C. with a 5% CO2 atmosphere. For experiments (see below), cells were seeded at a density of 9×10^4 cells/well (100 μL/well) and cultured at 37° C. under a 5% CO2.
The NHEMs-MP were treated for 4 days, with a medium refresh after 2 days of treatment—Amberketal, Ambermax and with the reference molecule (L-DOPA)—when the culture media are collected and stored at −80° C. as shown in FIG. 2. At the end of the treatments, the culture media were collected a second time, pooled with the media collected at day 2 and centrifuged for 30 minutes (14000 rpm). The pellet obtained after centrifugation and NHEMs-MP treated cells were lysed in 150 μl of a NaOH 1M solution. 5 μl of each cell lysate were used for protein quantification using BCA protein assay. The remaining 145 μl of the lysates were heated at 80° C. during 1 h. The optical density was measured at 490 nm and the melanin content was determined by comparison with a standard curve of synthetic melanin and reported to the quantity of protein present in each cell well tested.
The effects of these 2 compounds, namely Ambermax and Amberketal, on the melanin production were evaluated as described above. Based on MTS results, moderately pigmented (MP) NHEMs were treated with these 2 compounds at one concentration (100 μM for Amberketal and 3.16 μM for Ambermax) for 4 days. In parallel, cell cultures were also treated with Ethanol 0.1%, a concentration corresponding to the test compounds solvent, and with a known modulator of pigmentation (L-DOPA 50 μM). […] At the end of the treatments (D4), cells were lysed, the melanin content was quantified by spectrophotometry and normalized to the amount of proteins. Extracellular melanin was also evaluated by the same methodology after centrifugation of the culture media.

human skin explants = assay: Cellular viability of human skin living explants (Masson's trichrome, Goldner variant); assay type: cell-based
Procedure: Human skin explants of an average diameter of 12 mm (±1 mm) were prepared on an abdoplasty coming from a person (reference: P2237AB47—phototype II) or person (reference P2196-AB61, phototype III). The explants were kept in survival in BEM culture medium (BIO-EC's Explants Medium) at 37° C. in a humid, 5%-CO2 atmosphere.
The Ambermax was diluted in 0.1% ethanol at the following concentrations: 0.3 μM, 1 μM, 3 μM, 10 μM, 15 μM, 30 μM and 100 μM. The diluted solutions were stored at 4° C. during the study.
The explants were treated for 10 days with Ambermax (see products application below) or with no treatment.
On day 0 (DO), day 3 (D3), day 5 (D5), day 7 (D7) and day 10 (D10), the tested products (compounds for use in the invention) were 1) applied topically using a small spatula based on 2 μl per explant (2 mg per cm^2) at the indicated concentrations, 2) applied intradermatically by injections into the dermis using a syringe with 20 μL of product for each explant or 3) applied systemically by dilutions of the compound of invention in the culture media at the indicated concentration. […] The culture medium was half renewed (1 ml/well) on day 3, day 5, day 7 and day 10.
On day 0 (D0), D2, D3, D6, and D8, the tested products (compounds for use in the invention) were applied topically using a small spatula on the basis of 2 μl per explant (2 mg per cm^2). […] The culture medium was half renewed (1 ml/well) on D2, D3, D6 and D8.
After fixation for 24 hours in buffered formalin solution, the samples were dehydrated and impregnated in paraffin using a Leica PEARL dehydration automat. The samples were then paraffin-embedded using a Leica EG 1160 embedding station. 5-μm-thick sections of paraffin-embedded formol fixed sections were realized using a Leica RM 2125 Minot-type microtome, and the sections were then mounted on Superfrost® Plus glass slides. Microscopical observations were realized using a Leica DMLB, a BX43 or BX63 Olympus microscope. Pictures were digitized with an Olympus DP72 or DP74 camera and the Cell^D or cellSens data storing software.
The cell viability of epidermal and papillary dermal structures was observed on formalin-fixed paraffin-embedded (FFPE) skin sections after Masson's trichrome staining, Goldner variant. The cell viability was assessed by microscopical observation. Concerned batches: T0, (TUV, P1→P10) on D5 or D6 and D10.
The effects ex vivo was shown by treating human biopsies for 10 days (human living explants: 12 mm+/−1, donor, skin type III) with a systemic application, intradermic injections or a topical application of compounds according to embodiments of the invention (Ambermax). Concentrations of 1, 5 and 10 μM of this compound were used for systemic application and intradermic injections on the human explants. For topical application, biopsies were treated with 10, 30, and 100 μM of Ambermax. As control, non-treated explants or/and explants exposed to chronic UVA-irradiations were used as described in the experimental procedures.

Question: How did the “increase of melanin present in the media (extracellular)” value ([1]; p<0.01, n=10) turn out when Ambermax [Compound 16] was run?
Answer: +123%

Question: And the “increase of intracellular melanin content” value ([1]; p<0.01, n=12)?
Answer: +46%

Question: And the explant toxicity (human skin explants; 0.3-100 μM, 3 different ways of application)?
Answer: doesn't induce explant toxicity

Question: What about the explant viability (human skin explants; D5 and D10, 3 concentrations, 3 methods of application (topical, systemic, intradermal), skin type III) of the same substance?
Answer: no significant alterations of explant viability

Question: What about the explant alterations (human skin explants; application of 100 μM, D10) of the same substance?
Answer: very slight alterations

Question: And the “alteration of the papillary dermis” value (human skin explants; topical administration, 100 μM)?
Answer: no modification of the papillary dermis

Question: And the “explant viability in the epidermis (macroscopic evaluation)” value (human skin explants; topical administration, 100 μM)?
Answer: very slight decrease in the viability
